From patent US20250333383A1, “N-OXIDE COMPOUNDS AND USE THEREOF” (SK BIOPHARMACEUTICALS CO., LTD., priority 2022, published 2025)

Key:
human Nav1.7 channels = molecular target: T1, human Nav1.7 channels (Homo sapiens, UniProt Q15858); assay: hNav1.7 channel assay, whole cell patch clamp, two-pulse protocol; format: cell-based; settings: TP2 (inactivated phase inhibition), HEK293 cells stably expressing human Nav1.7, read-out: Inhibition activity: percent inhibition on the inactivated state of hNav1.7
T1 construct: host or cells: HEK293
T1 sequence (Q15858 whole entry): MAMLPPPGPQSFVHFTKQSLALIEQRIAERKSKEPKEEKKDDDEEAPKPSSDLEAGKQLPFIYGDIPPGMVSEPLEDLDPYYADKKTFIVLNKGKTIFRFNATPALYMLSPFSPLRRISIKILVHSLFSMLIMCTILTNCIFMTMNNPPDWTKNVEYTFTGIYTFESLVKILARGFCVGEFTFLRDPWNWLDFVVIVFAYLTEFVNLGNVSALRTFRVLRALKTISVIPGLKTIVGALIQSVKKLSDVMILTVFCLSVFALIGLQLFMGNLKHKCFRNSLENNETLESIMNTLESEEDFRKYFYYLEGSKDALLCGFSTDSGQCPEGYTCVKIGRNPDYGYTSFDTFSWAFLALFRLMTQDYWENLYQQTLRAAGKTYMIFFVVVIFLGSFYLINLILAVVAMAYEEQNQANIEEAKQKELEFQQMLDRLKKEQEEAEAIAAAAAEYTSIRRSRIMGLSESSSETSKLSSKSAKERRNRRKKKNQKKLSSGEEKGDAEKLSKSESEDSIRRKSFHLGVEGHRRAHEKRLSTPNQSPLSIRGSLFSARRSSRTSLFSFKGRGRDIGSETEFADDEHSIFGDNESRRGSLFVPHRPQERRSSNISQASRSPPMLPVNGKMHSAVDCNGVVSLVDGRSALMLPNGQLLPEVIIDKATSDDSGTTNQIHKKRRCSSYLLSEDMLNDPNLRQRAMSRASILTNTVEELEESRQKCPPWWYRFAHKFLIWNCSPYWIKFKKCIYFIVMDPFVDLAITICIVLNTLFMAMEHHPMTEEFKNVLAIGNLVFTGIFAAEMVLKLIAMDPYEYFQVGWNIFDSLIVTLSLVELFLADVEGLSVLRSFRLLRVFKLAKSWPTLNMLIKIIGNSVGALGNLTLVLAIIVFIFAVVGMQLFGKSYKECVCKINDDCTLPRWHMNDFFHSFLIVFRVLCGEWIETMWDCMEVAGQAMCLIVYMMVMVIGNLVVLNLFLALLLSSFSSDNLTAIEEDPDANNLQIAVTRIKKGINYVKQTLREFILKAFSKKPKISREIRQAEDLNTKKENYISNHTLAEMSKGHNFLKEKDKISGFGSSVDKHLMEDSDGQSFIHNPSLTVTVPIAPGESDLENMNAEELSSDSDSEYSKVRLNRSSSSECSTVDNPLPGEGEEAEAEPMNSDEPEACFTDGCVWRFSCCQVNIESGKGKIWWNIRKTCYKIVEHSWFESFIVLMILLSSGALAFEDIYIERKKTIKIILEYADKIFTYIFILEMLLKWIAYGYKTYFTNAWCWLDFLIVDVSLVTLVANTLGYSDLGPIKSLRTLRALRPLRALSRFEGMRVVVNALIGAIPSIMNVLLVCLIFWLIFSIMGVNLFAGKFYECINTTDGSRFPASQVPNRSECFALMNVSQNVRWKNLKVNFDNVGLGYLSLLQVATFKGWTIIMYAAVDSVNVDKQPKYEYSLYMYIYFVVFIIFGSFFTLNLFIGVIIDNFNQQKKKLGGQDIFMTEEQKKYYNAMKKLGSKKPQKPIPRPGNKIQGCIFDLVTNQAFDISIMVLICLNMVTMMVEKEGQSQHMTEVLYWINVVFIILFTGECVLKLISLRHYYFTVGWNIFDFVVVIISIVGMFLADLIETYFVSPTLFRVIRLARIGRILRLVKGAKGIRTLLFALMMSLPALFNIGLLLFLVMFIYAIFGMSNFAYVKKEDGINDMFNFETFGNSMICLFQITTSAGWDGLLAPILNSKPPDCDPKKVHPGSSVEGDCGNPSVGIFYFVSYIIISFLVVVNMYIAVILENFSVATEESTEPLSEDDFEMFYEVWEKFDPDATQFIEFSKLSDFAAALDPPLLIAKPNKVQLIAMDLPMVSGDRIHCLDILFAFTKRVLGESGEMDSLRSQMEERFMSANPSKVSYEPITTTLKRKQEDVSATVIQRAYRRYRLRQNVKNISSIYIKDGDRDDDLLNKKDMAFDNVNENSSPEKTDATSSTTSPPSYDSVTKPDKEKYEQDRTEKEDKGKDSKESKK
Source text: Whole cell patch clamp technique was used to investigate the inhibitory effects of the compound of Examples on human Nav1.7 channels, stably expressed in HEK293 cells. Human Nav1.7 recombinant cell line (CYL3011-precisION) was purchased from Eurofins.
Two-pulse protocol was used every 10 seconds to assess the state-dependent inhibition by Examples. From the holding potential of −90 mV, pre-pulse (200 ms at −120 mV) was followed by test pulse1 ([…]), then test pulse2 (TP2: 20 ms at 0 mV) was evoked after inter-pulse (20 ms at −100 mV).
Peak current amplitudes were measured for test pulses TP1 (resting phase inhibition) and TP2 (inactivated phase inhibition). The following solutions were used for screening assay: External (mM): 145 NaCl, 1 MgCl2, 1.8 CaCl2, 10 Hepes, 5 Glucose, pH 7.4, 300 mOsm; Internal (mM): 120 CsF, 10 NaCl, 10 EGTA, 10 HEPES, pH 7.2, 290 mOsm.
The inhibition on the inactivated state of hNav1.7 was calculated as: % inhibition (inactivation state)=(1−(ITP2, TA/ITP2, Control)×100%, where ITP2 (the inward peak Na+ currents), Control and ITP2, TA were elicited by the TP2 in control (vehicle only) and in the presence of a test article (TA) indicating Examples, respectively.

[1] = tested on: Rat Spinal Nerve Ligation Model; assay: Rat Spinal Nerve Ligation (SNL, Chung) model, mechanical allodynia by von Frey filaments; format: in vivo; settings: 30 mg/kg, p.o., PWT two hours after the treatment
Description: Rat Spinal Nerve Ligation Model
Analgesic efficacy was examined through the Spinal Nerve Ligation (SNL) model, also known as the Chung model (Kim and Chung, 1992). SNL model is one of the most frequently used animal models for the assessment of neuropathic pain behavior.
Briefly, the lumbar 5 spinal nerve is ligated with silk suture distal to the dorsal root ganglion. After two weeks of recovery, mechanical allodynia in the affected paw of animals was evaluated using von Frey filaments. Using the Dixons Up-Down method (Chaplan et al, 1994), a pre-drug baseline was taken with allodynia defined as a paw withdrawal threshold (PWT)<4 g. Test compounds (at 30 mg/kg) or vehicle were then orally administered, and PWT was determined two hours after the treatment. Statistical mean values of PWT for vehicle control and drug treatment groups were calculated, and the percent of maximum possible effect (% MPE) value was determined according to the following formula; % MPE=[(post-drug PWT−pre-drug PWT)/(cutoff PWT−pre-drug PWT)]×100.

| SMILES | inhibition at 10 µM (human Nav1.7 channels) [%] | in vivo efficacy: % MPE [1] |
| --- | --- | --- |
| O=C(NCc1cccc[n+]1[O-])c1cc(-c2ccc(Cl)cc2)ccc1F [Example 51, 5-(4-chlorophenyl)-2-fluoro-N-[(1-oxidopyridin-1-ium-2-yl)methyl]benzamide] | 70 to 100 | +++ (+++: 70-100%) |
| Cc1cc(-c2cccc(C(=O)NCc3cccc[n+]3[O-])c2)ccc1F [Example 22, 3-(4-fluoro-3-methyl-phenyl)-N-[(1-oxidopyridin-1-ium-2-yl)methyl]benzamide] | 40 to 70 | + (+: 10-40%,) |
| O=C(NCc1cccc[n+]1[O-])c1cccc(-c2ccc(F)c(F)c2)c1 [Example 19, 3-(3,4-difluorophenyl)-N-[(1-oxidopyridin-1-ium-2-yl)methyl]benzamide] | 40 to 70 | ++ (++: 40-70%,) |
| O=C(NCc1cccc[n+]1[O-])c1cccc(-c2cc(Cl)cc(Cl)c2)c1 [Example 7, 3-(3,5-dichlorophenyl)-N-[(1-oxidopyridin-1-ium-2-yl)methyl]benzamide] | 40 to 70 |  |
| O=C(NCc1cccc[n+]1[O-])c1cccc(-c2ccc(C(F)(F)F)c(F)c2)c1 [Example 42, 3-[3-fluoro-4-(trifluoromethyl)phenyl]-N-[(1-oxidopyridin-1-ium-2-yl)methyl]benzamide] | 40 to 70 |  |
| O=C(NCc1cccc[n+]1[O-])c1cccc(-c2cc(F)cc(C(F)(F)F)c2)c1 [Example 41, 3-[3-fluoro-5-(trifluoromethyl)phenyl]-N-[(1-oxidopyridin-1-ium-2-yl)methyl]benzamide] | 10 to 40 |  |
| CC(C)(C)c1ccc(-c2cccc(C(=O)NCc3cccc[n+]3[O-])c2)cc1 [Example 13, 3-(4-tert-butylphenyl)-N-[(1-oxidopyridin-1-ium-2-yl)methyl]benzamide] | 40 to 70 |  |
| COc1cc(F)c(F)cc1-c1cccc(C(=O)NCc2cccc[n+]2[O-])c1 [Example 47, 3-(4,5-difluoro-2-methoxy-phenyl)-N-[(1-oxidopyridin-1-ium-2-yl)methyl]benzamide] | 10 to 40 |  |
| COc1cc(-c2cccc(C(=O)NCc3cccc[n+]3[O-])c2)cc(C(F)(F)F)c1 [Example 45, 3-[3-methoxy-5-(trifluoromethyl)phenyl]-N-[(1-oxidopyridin-1-ium-2-yl)methyl]benzamide] | 10 to 40 |  |
| O=C(NCc1cccc[n+]1[O-])c1cc(-c2ccc(C(F)(F)F)c(F)c2)ccc1F [Example 60, 2-fluoro-5-[3-fluoro-4-(trifluoromethyl)phenyl]-N-[(1-oxidopyridin-1-ium-2-yl)methyl]benzamide] | 70 to 100 |  |
| O=C(NCc1cccc[n+]1[O-])c1cc(-c2ccc(Cl)cc2C(F)(F)F)ccc1F [Example 55, 5-[4-chloro-2-(trifluoromethyl)phenyl]-2-fluoro-N-[(1-oxidopyridin-1-ium-2-yl)methyl]benzamide] | 40 to 70 |  |
| O=C(NCc1cccc[n+]1[O-])c1cccc(-c2ccc(OC(F)(F)F)cc2)c1 [Example 3, N-[(1-oxidopyridin-1-ium-2-yl)methyl]-3-[4-(trifluoromethoxy)phenyl]benzamide] | 70 to 100 | ++ (++: 40-70%,) |
| COc1cc(-c2cccc(C(=O)NCc3cccc[n+]3[O-])c2)ccc1Cl [Example 48, 3-(4-chloro-3-methoxy-phenyl)-N-[(1-oxidopyridin-1-ium-2-yl)methyl]benzamide] | 40 to 70 |  |
| COc1cc(Cl)ccc1-c1ccc(F)c(C(=O)NCc2cccc[n+]2[O-])c1 [Example 53, 5-(4-chloro-2-methoxy-phenyl)-2-fluoro-N-[(1-oxidopyridin-1-ium-2-yl)methyl]benzamide] | 70 to 100 |  |

Continued, in another order:

| inhibition at 10 µM (human Nav1.7 channels) [%] | SMILES | in vivo efficacy: % MPE [1] |
| --- | --- | --- |
| 70 to 100 | O=C(NCc1cccc[n+]1[O-])c1cccc(-c2ccc(Cl)cc2)c1 [Example 2, 3-(4-chlorophenyl)-N-[(1-oxidopyridin-1-ium-2-yl)methyl]benzamide] | +++ (+++: 70-100%) |
| 40 to 70 | Cc1cc(Cl)ccc1-c1cccc(C(=O)NCc2cccc[n+]2[O-])c1 [Example 15, 3-(4-chloro-2-methyl-phenyl)-N-[(1-oxidopyridin-1-ium-2-yl)methyl]benzamide] |  |
| 40 to 70 | O=C(NCc1cccc[n+]1[O-])c1cccc(-c2ccc(F)c(Cl)c2)c1 [Example 17, 3-(3-chloro-4-fluoro-phenyl)-N-[(1-oxidopyridin-1-ium-2-yl)methyl]benzamide] |  |
| 70 to 100 | O=C(NCc1cccc[n+]1[O-])c1cccc(-c2ccccc2F)c1 [Example 25, 3-(2-fluorophenyl)-N-[(1-oxidopyridin-1-ium-2-yl)methyl]benzamide] |  |
| 40 to 70 | Cc1ccc(-c2cccc(C(=O)NCc3cccc[n+]3[O-])c2)cc1 [Example 14, N-[(1-oxidopyridin-1-ium-2-yl)methyl]-3-(p-tolyl)benzamide] | ++ (++: 40-70%,) |
| 40 to 70 | O=C(NCc1cccc[n+]1[O-])c1cccc(-c2ccccc2Cl)c1 [Example 20, 3-(2-chlorophenyl)-N-[(1-oxidopyridin-1-ium-2-yl)methyl]benzamide] |  |
| 10 to 40 | COc1cc(Cl)ccc1-c1cccc(C(=O)NCc2cccc[n+]2[O-])c1 [Example 26, 3-(4-chloro-2-methoxy-phenyl)-N-[(1-oxidopyridin-1-ium-2-yl)methyl]benzamide] |  |
